Results published in patent publication US4236015A, “1-(2-Acylaminophenyl)imidazoles” (Westwood Pharmaceuticals, Inc., priority 1979, dated 1980).

Key:
[1] = system: rat paw edema; assay: Rat paw edema assay, oral dosing; assay type: in vivo; conditions: 4 hours
Protocol: (§1) The anti-inflammatory activity of representative compounds of this invention was determined by the rat paw edema assay both by local administration (Table XI below) and by oral dosing (Table XII below). For the oral dosing, the procedure of C. A. Winter, E. A. Risley and G. W. Nuss, Proc. Soc. Exp. Biol. Med. 111, 544 (1962) was employed with measurement taken four hours after the drug was administered. The local administration tests were carried out similarly except the irritant (carrageenan) and the test compound were injected simultaneously at time zero. Tables XI and XII report the anti-inflammatory activity of the compounds tested as % difference in the edema or swelling as compared with the control. These Tables also give the response in many instances of more than one dose level of the same drug.

[2] = system: cell-mediated immune response to the antigen, Mycobacterium tuberculosis H37Ra; assay: Delayed hypersensitivity test; assay type: in vivo, mouse; conditions: for D.H.S. (ED60): s.c., mice, 60% reduction of edema of cell-mediated immune response vs control
Protocol: The immunosuppressant activities of the compounds of this invention were determined via the hemolysin test in mice and by the delayed hypersensitivity test. The hemolysin test used is that described in Methods in Immunology, edited by D. H. Campbell et al, W. A. Benjamin, New York 1963 pages 172-175, and measures humeral or antibody response. The delayed hypersensitivity test measures the effect of a test compound on the ability of a subject mouse to mount a cell-mediated immune response to the antigen, Mycobacterium tuberculosis H37Ra. The mouse is sensitized to the antigen by subcutaneous administration in the base of the tail. The development of the delayed hypersensitivity response may be measured at any time beginning six days after sensitization but is usually done on the ninth day as follows: The right hind paw is injected with purified protein derivative (tuberculin) while the left hind paw (control) receives physiological saline. Both paw volumes are measured after twenty-four hours and significant increase in the volume of the right hind paw is taken as a measure of an effective delayed hypersensitivity response. All compounds were administered by the subcutaneous route.
The D.H.S. (ED60) mg./kg. s.c. value appearing in column 3 is an expression of the effectiveness of the drug in reducing the edema that accompanies the cell-mediated immune response. It is a measure of the number of milligrams per kilogram of body weight of the drug administered subcutaneously which is required to reduce the edema of the cell-mediated immune response by 60% when compared to the control.

[3] = system: humeral or antibody response; assay: Hemolysin test in mice; assay type: in vivo; conditions: s.c., 50% reduction of antibody activity vs control
[4] = system: Trichophyton mentagrophytes; assay: Antifungal activity, agar dilution method; assay type: cell-based, Trichophyton mentagrophytes (ATCC No. 8757 and 9129)
Protocol: (§2) Various compounds of this invention display antifungal and anti-yeast activity.
(§3) In Table IX below are listed the antifungal activity of a number of compounds encompassed in the present invention. These were determined by the agar dilution method as described in Chapters 2 and 3 of Methods in Microbiology, Vol. 7B, edited by J. R. Norris and D. W. Ribbons, Academic Press, New York, 1972.

[5] = system: T. agelloi; assay: Antifungal activity, agar dilution method; assay type: cell-based, Trichophyton ajelloi
Protocol: as §2, §3

[6] = system: carrageenan rat paw edema; assay: Rat paw edema assay, local administration; assay type: in vivo; conditions: 100 mg/kg
Protocol: as §1

[7] = system: Trichophyton rubrum; assay: Antifungal activity, agar dilution method; assay type: cell-based, Trichophyton rubrum (ATCC No. 10218 and 14001)
Protocol: as §2, §3

[8] = system: Candida tropicalis; assay: Antifungal activity, agar dilution method; assay type: cell-based
Protocol: as §2, §3

[9] = system: Candida albicans; assay: Antifungal activity, agar dilution method; assay type: cell-based, Candida albicans (ATCC No. 10231)
Protocol: as §2, §3

Row | Compound | Difference from Control ([1]; 100 mg/kg) | Difference from Control ([1]; 400 mg/kg) | D.H.S. (ED60) [2] | HL(ED50) [3] | Parts Per Million Inhibitions, T. mentagrophytes [4] | Parts Per Million Inhibitions, T. agelloi [5] | % Difference from Control [6] | Parts Per Million Inhibitions, T. rubrum [7] | ED60 ([2]; Mus musculus, sc, read-out: D.H.S. (ED60)) | Parts Per Million Inhibitions, C. tropicalis [8] | Parts Per Million Inhibitions, C. albicans [9]
1 | FC(F)(F)c1cccc(-c2nc3ccccc3n3ccnc23)c1 [Compound 136] | -9% | -25% | > 50 mg/kg | 2.7 mg/kg | 100 Parts Per Million | – | – | – | – | – | –
2 | Cc1ccc(-c2nc3ccccc3n3ccnc23)cc1 [Compound 134] | -43% | – | 7.2 mg/kg | 0.5 mg/kg | 16 Parts Per Million | 100 Parts Per Million | – | – | – | – | –
3 | Clc1ccc(-c2nc3ccccc3n3ccnc23)cc1 [Compound 140] | -35% | – | 1.15 mg/kg | 0.26 mg/kg | – | – | -78% | < 0.5 Parts Per Million | – | – | –
4 | Cc1ccccc1-c1nc2ccccc2n2ccnc12 [Compound 132] | -76% | – | – | – | 100 Parts Per Million | 100 Parts Per Million | – | – | – | – | –
5 | COc1cc(OC)cc(-c2nc3ccccc3n3ccnc23)c1 [Compound 139] | -22% | -25% | > 50 mg/kg | 3.0 mg/kg | 100 Parts Per Million | – | – | – | – | – | –
6 | CC(C)(C)c1ccc(-c2nc3ccccc3n3ccnc23)cc1 [Compound 137] | -26% | – | 3.2 mg/kg | < 0.125 mg/kg | 100 Parts Per Million | 100 Parts Per Million | – | – | – | – | –
7 | c1ccc(Oc2ccc(-c3nc4ccccc4n4ccnc34)cc2)cc1 [Compound 219] | – | – | – | – | – | – | – | – | < 32 mg/kg | – | –
8 | c1ccc(-c2ccc(-c3nc4ccccc4n4ccnc34)cc2)cc1 [Compound 135] | – | – | 0.22 mg/kg | 0.033 mg/kg | 100 Parts Per Million | 100 Parts Per Million | – | – | – | – | –
9 | Cc1cccc(-c2nc3ccccc3n3ccnc23)c1 [Compound 133] | -17% | – | 32 mg/kg | 0.75 mg/kg | 8 Parts Per Million | 8 Parts Per Million | – | 8 Parts Per Million | – | 100 Parts Per Million | 100 Parts Per Million
10 | CCCCCCCCCC(=O)Oc1ccc(-c2nc3ccccc3n3ccnc23)cc1 [Compound 165] | – | – | – | – | 100 Parts Per Million | 100 Parts Per Million | – | 100 Parts Per Million | – | – | –
